Columns and labels:
Format in all cases: in vivo
[1] = test system: green peach aphid (Myzus persicae (Sulzer)); test: Test A: control of green peach aphid, foliar spray on pre-infested radish plant; settings: 144 h, assessed after 6 days; for mortality at 50 ppm: sprayed at 50 ppm; for mortality at 250 ppm: sprayed at 250 ppm
Experimental: (§1) Test compounds were formulated using a solution containing 10% acetone, 90% water and 300 ppm X-77® Spreader Lo-Foam Formula non-ionic surfactant containing alkylarylpolyoxyethylene, free fatty acids, glycols and isopropanol (Loveland Industries, Inc. Greeley, Colo., USA). The formulated compounds were applied in 1 mL of liquid through a SUJ2 atomizer nozzle with ⅛ JJ custom body (Spraying Systems Co. Wheaton, Ill., USA) positioned 1.27 cm (0.5 inches) above the top of each test unit. Test compounds were sprayed at the rates indicated, and each test was replicated three times.
For evaluating control of green peach aphid (Myzus persicae (Sulzer)) through contact and/or systemic means, the test unit consisted of a small open container with a 12-15-day-old radish plant inside. This was pre-infested by placing on a leaf of the test plant 30-40 aphids on a piece of leaf excised from a culture plant (cut-leaf method). The aphids moved onto the test plant as the leaf piece desiccated. After pre-infestation, the soil of the test unit was covered with a layer of sand.
Test compounds were formulated and sprayed at 250 and/or 50 ppm. After spraying of the formulated test compound, each test unit was allowed to dry for 1 hour and then a black, screened cap was placed on top. The test units were held for 6 days in a growth chamber at 19-21° C. and 50-70% relative humidity. Each test unit was then visually assessed for insect mortality.

[2] = test system: sweetpotato whitefly (Bemisia tabaci (Gennadius)); test: Test E: control of sweetpotato whitefly, sprayed cotton plant infested with eggs; settings: 312 h, assessed after 13 days; for mortality at 250 ppm: sprayed at 250 ppm
Experimental: as §1
For evaluating control of the sweetpotato whitefly (Bemisia tabaci (Gennadius)) through contact and/or systemic means, the test unit consisted of a small open container with a 12-14-day-old cotton plant inside. Prior to the spray application, both cotyledons were removed from the plant, leaving one true leaf for the assay. Adult whiteflies were allowed to lay eggs on the plant and then were removed from the test unit. Cotton plants infested with at least 15 eggs were submitted to the test for spraying.
Test compounds were formulated and sprayed at 250 and/or 50 ppm. After spraying, the test units were allowed to dry for 1 hour. The cylinders were then removed, and the units were taken to a growth chamber and held for 13 days at 28° C. and 50-70% relative humidity. Each test unit was then visually assessed for insect mortality.

[3] = test system: cotton melon aphid (Aphis gossypii (Glover)); test: Test B: control of cotton melon aphid, foliar spray on pre-infested cotton plant; settings: 144 h, assessed after 6 days; for mortality at 50 ppm: sprayed at 50 ppm; for mortality at 250 ppm: sprayed at 250 ppm
Experimental: as §1
For evaluating control of cotton melon aphid (Aphis gossypii (Glover)) through contact and/or systemic means, the test unit consisted of a small open container with a 6-7-day-old cotton plant inside. This was pre-infested with 30-40 insects on a piece of leaf according to the cut-leaf method, and the soil of the test unit was covered with a layer of sand.
Test compounds were formulated and sprayed at 250 and/or 50 ppm. After spraying, the test units were maintained in a growth chamber for 6 days at 19° C. and 70% relative humidity. Each test unit was then visually assessed for insect mortality.

[4] = test system: Western Flower Thrips (Frankliniella occidentalis); test: Test D: control of Western Flower Thrips, sprayed Soleil bean plant; settings: held for 7 days
Experimental: as §1
For evaluating control of Western Flower Thrips (Frankliniella occidentalis) through contact and/or systemic means, the test unit consisted of a small open container with a 5-7-day-old Soleil bean plant inside.
Test compounds were formulated and sprayed at 250 and/or 50 ppm. After spraying, the test units were allowed to dry for 1 hour, and then 22-27 adult thrips were added to the unit. A black, screened cap was placed on the top of each test unit, and the test units were held for 7 days at 25° C. and 45-55% relative humidity.

[5] = test system: potato leafhopper (Empoasca fabae); test: Test C: control of potato leafhopper, sprayed Soleil bean plant, post-infested; settings: assessed after 6 days
Experimental: as §1
For evaluating control of potato leafhopper (Empoasca fabae) through contact and/or systemic means, the test unit consisted of a small open container with a 5-6-day-old Soleil bean plant (primary leaves emerged) inside. White sand was added to the top of the soil and one of the primary leaves was excised prior to application.
Test compounds were formulated and sprayed at 250 ppm and/or 50 ppm. After spraying, the test units were allowed to dry for 1 h before they were post-infested with 5 potato leafhoppers (18-21-day-old adults). A black, screened cap was placed on the top of each test unit, and the test units were held for 6 days in a growth chamber at 24° C. and 70% relative humidity. Each test unit was then visually assessed for insect mortality.

Row | SMILES | mortality at 50 ppm [1] [%] | mortality at 250 ppm [1] [%] | mortality at 50 ppm [3] [%] | mortality at 250 ppm [3] [%] | control efficacy (plant damage and/or mortality) ([4]; sprayed at 250 ppm) | also measured
1 | CC(C)COc1ccc2nn(-c3cccnc3)cc2c1 [Compound 54, 5-(2-methylpropoxy)-2-(3-pyridinyl)-2H-indazole] | ≥ 80 | ≥ 80 | ≥ 80 | ≥ 80 |  | mortality at 50 ppm ([2]; sprayed at 50 ppm): ≥ 50%; mortality at 250 ppm [2]: ≥ 50%
2 | CC(C)NC(=O)Cc1ccc2nn(-c3cccnc3)cc2c1 [Compound 38, N-(1-methylethyl)-2-(3-pyridinyl)-2H-indazole-5-acetamide] | ≥ 80 | ≥ 80 | ≥ 80 | ≥ 80 | 40% or less plant damage and/or 100% mortality | 
3 | CC(C)NC(=O)Cc1ccc2nn(-c3cncc(F)c3)cc2c1 [Compound 56] |  |  |  |  |  | control efficacy (mortality) ([5]; sprayed at 50 ppm): ≥ 80%; control efficacy (mortality) ([5]; sprayed at 250 ppm): ≥ 80%
4 | CSCCC(=O)c1ccc2nn(-c3cccnc3)cc2c1 [Compound 31] |  |  |  |  |  | control efficacy (plant damage and/or mortality) ([4]; sprayed at 50 ppm): 40% or less plant damage and/or 100% mortality
5 | COCNCCC(=O)c1ccc2nn(-c3cccnc3)cc2c1 [Compound 32, 3-(methoxymethylamino)-1-[2-(3-pyridinyl)-2H-indazol-5-yl]-1-propanone] | ≥ 80 | ≥ 80 |  | ≥ 80 | 40% or less plant damage and/or 100% mortality | 
6 | CC(C(=O)NC(C)(C)C#N)c1ccc2nn(-c3cccnc3)cc2c1 (stereo not drawn) [Compound 85, N-(1-cyano-1-methylethyl)-α-methyl-2-(3-pyridinyl)-2H-indazole-5-acetamide] | ≥ 80 | ≥ 80 | ≥ 80 | ≥ 80 |  | mortality at 250 ppm [2]: ≥ 50%
7 | FC(F)(F)c1ccc(Oc2ccc3nn(-c4cccnc4)cc3c2)cc1 [Compound 35] |  |  |  |  | 40% or less plant damage and/or 100% mortality | 
8 | CSCCC(=O)c1cccc2nn(-c3cccnc3)cc12 [Compound 2, 3-(methylthio)-1-[2-(3-pyridinyl)-2H-indazol-4-yl]-1-propanone] | ≥ 80 |  | ≥ 80 |  |  | control efficacy (plant damage and/or mortality) ([4]; sprayed at 50 ppm): 40% or less plant damage and/or 100% mortality
9 | CC(C(=O)NCc1ncccn1)c1ccc2nn(-c3cccnc3)cc2c1 (stereo not drawn) [Compound 59, α-methyl-2-(3-pyridinyl)-N-(2-pyrimidinylmethyl)-2H-indazole-5-acetamide] | ≥ 80 | ≥ 80 | ≥ 80 | ≥ 80 |  | mortality at 250 ppm [2]: ≥ 50%
10 | O=C(Cc1ccc2nn(-c3cccnc3)cc2c1)NCC(F)(F)F [Compound 41] |  |  |  |  | 40% or less plant damage and/or 100% mortality | 
11 | c1cnc(Oc2ccc3nn(-c4cccnc4)cc3c2)nc1 [Compound 42, 2-(3-pyridinyl)-5-(2-pyrimidinyloxy)-2H-indazole] | ≥ 80 | ≥ 80 | ≥ 80 | ≥ 80 |  | 
12 | O=C(NCC(F)(F)F)C(=O)c1ccc2nn(-c3cccnc3)cc2c1 [Compound 48, α-oxo-2-(3-pyridinyl)-N-(2,2,2-trifluoroethyl)-2H-indazole-5-acetamide] | ≥ 80 | ≥ 80 |  | ≥ 80 |  | 
